# Data from paper PMC8773409, “Tetrapeptides Modelled to the Androgen Binding Site of ZIP9 Stimulate Expression of Tight Junction Proteins and Tight Junction Formation in Sertoli Cells” (Biology, 2021).
# Legend:
# ZIP9 = ZIP9 protein immunofluorescence after siRNA silencing; format: cell-based, rat; settings: ZIP9-siRNA-treated 93RS2 cells; n = 30, means ± SEM
# Method: For visualization by immunofluorescence, the medium containing the primary antibody was replaced with PBS containing 1% BSA, 0.3% Triton X-100, and the secondary antibody (goat anti-rabbit IgG diluted at 1:500 in 2% FCS, 0.1 Triton X-100 in PBS) labeled with AlexaFluor 488 (Life Technologies, Darmstadt, Germany). This medium was removed by aspiration after 1 h at room temperature and cells were washed in PBS 3 times. All incubation steps with UV-sensitive reagents were carried out in the dark. An inverse Olympus IX81 microscope equipped with the corresponding fluorescence system (Olympus, Hamburg, Germany) was used to acquire images.
# Fluorescence was measured according to the instructions of the ImageJ software program (freely available at http://rsbweb.nih.gov/ij/, accessed on 23 December 2021) according to the protocol provided (http://www.slu.se/PageFiles/388774/Pacho%20ImageJ¬¬%20-measuring-cell-fluo¬rescence.pdf, accessed on 23 December 2021). Only green fluorescence was considered. The fluorescence of 3 × 25 cells closest to the diagonals of photomicrographs from 3 independent experiments was considered for statistical analysis. […]
# A total of 6 × 10^4 93RS2 cells were cultured in 2-cm wells of a 6-well plate for 24 h. […] The concentration of the extracted mRNA was quantified by the NanodropTM One spectrophotometer (Thermo Fisher Scientific, Schwerte, Germany). […]
# ZIP9 mRNA = test: RT-PCR of ZIP9 mRNA after siRNA silencing; format: cell-based, rat; settings: ZIP9-siRNA-treated 93RS2 cells
# Method: A total of 6 × 10^4 93RS2 cells were cultured in 2-cm wells of a 6-well plate for 24 h. Thereafter, cells were treated for 48 h either with ZIP9-specific siRNA (ZIP9-siRNA; 5′GGAUUAAGUAAGAGCAGUAtt3′ and 5′UACUGCUCUUACUUAAUCCta3′) to silence ZIP9 expression or with an appropriate negative control siRNA (nc-siRNA), as described previously. ZIP9-siRNA and nc-siRNA were part of the kit Silencer® Select Pre-designed siRNA, provided by Invitrogen (Thermo Fisher Scientific, Schwerte, Germany). After the siRNA treatment, RNeasy® Mini Kit (Qiagen GmbH, Hilden, Germany) was used to isolate mRNA. The concentration of the extracted mRNA was quantified by the NanodropTM One spectrophotometer (Thermo Fisher Scientific, Schwerte, Germany). Samples were measured in duplicate and the average values were used.
# RT-PCR was applied in order to assess the success of silencing ZIP9 expression by siRNA. mRNA that had been isolated from cells treated with either nc-siRNA or ZIP9-specific siRNA was processed to cDNA using the Reverse Transcription System (Promega GmbH, Mannheim, Germany) according to the protocol of the provider. A total of 1 µg cDNA, quantified by the NanodropTM One spectrophotometer, was used in the PCR-Master-Mix ready-to-load (Bio&SELL GmbH, Feucht, Germany) to detect ZIP9-specific cDNA. […]
# [1] = test system: androgen binding site of ZIP9 on 93RS2 cells; test: Cell-surface labeling with testosterone-BSA-FITC (displacement); settings: 20 min; for labeling of 93RS2 cells by fluorescent conjugate: 5 µM, room temperature, no competitor, ZIP9 expressed
# Method: Cells were cultured in a humidified incubator (37 °C, 5% CO2) in 1:1 DMEM:Ham’s F-12 medium with L-glutamine supplemented with 10% (v/v) fetal bovine serum (FBS) and 1% (v/v) penicillin/streptomycin. The medium was replaced every two days.
# A total of 93 RS2 cells were cultured at a density of 5 × 10^3 cells per well in 24-well plates as described above. After reaching about 80% confluence, the cells were treated with either 10 nM testosterone or 1 µM of each of the peptides for 1 h. Both peptide-treated cells and controls were also treated with ethanol vehicle at the same concentration as other plates of cells treated with testosterone dissolved in ethanol. […] After incubation for an additional 20 min at room temperature, the medium was aspirated and cells were fixed in 400 µL ice-cold methanol containing 20 ng of 4,6-diamino-2-phenylindole (DAPI) at room temperature. This solution was aspirated after 15 min and cells were washed with 700 μL PBS. Cell imaging was carried out in 400 µL PBS using an inverse Olympus IX81 microscope (Olympus, Hamburg, Germany).
# In order to account for non-specific binding, cells were incubated for 20 min with 5 µM BSA-FITC (lacking the testosterone moiety) diluted in Tris-Buffer (pH 7.2) at room temperature. After washing twice with PBS and fixing in absolute methanol containing DAPI for 15 min, images were obtained as described above.
# [2] = test system: claudin-1 and claudin-5 expression in rodent Sertoli cells; set-up: method as in PMID 27164415, PMID 12851029, PMID 20403878, doi:10.1093/biolreprod/83.s1.109; settings: ref [6],[29],[34],[35]; cited from earlier work
# [3] = test system: CREB/ATF-1 phosphorylation in 93RS2 cells; test: Immunofluorescence of phospho-CREB/phospho-ATF-1 in 93RS2 cells; format: cell-based, rat; settings: 10 nM testosterone or 10 µM peptide, 30 min
# Method: (§1) The medium was replaced every two days.
# (§2) Each chamber of 4-chamber slides was plated with 1 × 10^4 93RS2 cells and cultured as described above to approximately 80% confluence. Incubation was then carried out with either 10 nM testosterone or 10 µM of each of the peptides or with vehicle only (control). The medium was removed by aspiration after 30 min, and cells were fixed for 15 min in absolute methanol containing DAPI (4′,6-diamidino-2-phenylindole). After aspirating the fixative, cells were treated with blocking solution (3% BSA and 0.3% Triton X-100 in PBS) for 1 h. […]
# (§3) For visualization by immunofluorescence, the medium containing the primary antibody was replaced with PBS containing 1% BSA, 0.3% Triton X-100, and the secondary antibody (goat anti-rabbit IgG diluted at 1:500 in 2% FCS, 0.1 Triton X-100 in PBS) labeled with AlexaFluor 488 (Life Technologies, Darmstadt, Germany). […] An inverse Olympus IX81 microscope equipped with the corresponding fluorescence system (Olympus, Hamburg, Germany) was used to acquire images.
# (§4) Fluorescence was measured according to the instructions of the ImageJ software program (freely available at http://rsbweb.nih.gov/ij/, accessed on 23 December 2021) according to the protocol provided (http://www.slu.se/PageFiles/388774/Pacho%20ImageJ¬¬%20-measuring-cell-fluo¬rescence.pdf, accessed on 23 December 2021). Only green fluorescence was considered. […]
# [4] = test system: total Erk1/2 in 93RS2 cells; test: Expression of total Erk1/2 in 93RS2 lysates; format: cell-based, rat; settings: lysates of treated 93RS2 cells; data not shown
# Method: (§5) A total of 1 × 10^5 93RS2 cells were grown in 10-cm culture dishes as described above. Cells were then incubated for 24 h with 1% FBS before treatment with various concentrations of the peptides dissolved in medium or testosterone dissolved in ethanol; equal amounts of ethanol were also added to the peptide-treated cells and to control incubations. After 30 min of incubation the medium was removed by aspiration, and cells were washed twice with ice-cold PBS (without Ca^2+ or Mg^2+; Thermo Fisher Scientific, Darmstadt, Germany) and then lysed in 400 µL of a commercially available cell lysis buffer (Cell Signaling Technology, Frankfurt, Germany) according to the protocol of the provider. […] After centrifugation of the lysates at 4 °C for 10 min at 13,000× g, the protein concentration in the supernatants was determined using a bicinchoninic acid (BCA) protein assay reagent kit (Pierce, Rockford, IL, USA) with inclusion of the lysis buffer in the standard curve.
# (§6) For Western blotting, 10 µg of protein from cell lysates was separated by SDS-PAGE on slab gels containing 10% acrylamide and 0.3% N,N′-methylene-bis-acrylamide. […] The resulting chemiluminescence was recorded by exposure to film, which was analyzed with the software program ImageJ (freely available at http://rsbweb.nih.gov/ij/ (accessed on 31 December 2021)). […]
# [5] = test system: Erk1/2 phosphorylation in 93RS2 cells; test: Immunofluorescence of phospho-Erk1/2 in 93RS2 cells; format: cell-based, rat; settings: 10 nM testosterone or 10 µM peptide, 30 min, n = 3 × 25
# Method: as §1, §2, §3, §4
# [6] = test system: CREB/ATF-1 phosphorylation (via ZIP9) in 93RS2 cells; test: Western blot of phospho-CREB/phospho-ATF-1 in 93RS2 Sertoli cells; format: cell-based, rat
# Method: as §1
# as §5, with “provider. Immediately before use, […], 1× protease inhibitor cocktail (Roche, Mannheim, Germany), and 2 µg/mL pepstatin were added to the lysis buffer. All lysis steps were carried out on ice.” for “provider.”
# as §6, with “2021)). Loading differences in the various Western blots were corrected by taking into consideration the optical density of bands corresponding to unphosphorylated Erk1/2 bands or total actin detected in Western blots that were run in parallel.” for “2021)).”
# Data were analyzed by GraphPad Prism4 software and by applying either the unpaired t-test with Welch’s corrections or one-way ANOVA with repeated measures and Dunnett´s comparison of all data to the control. […]
# claudin-5 in 93RS2 cells = test: Immunofluorescence of claudin-5 in 93RS2 cells; format: cell-based, rat; settings: 10 nM testosterone or 10 µM peptide, 24 h
# [7] = test system: ZO-1 expression in 93RS2 cells; test: Immunofluorescence of ZO-1 in 93RS2 cells; format: cell-based, rat; settings: 10 nM testosterone or 10 µM peptide, 24 h
# claudin-1 in 93RS2 cells = test: Immunofluorescence of claudin-1 in 93RS2 cells; format: cell-based, rat; settings: 10 nM testosterone or 10 µM peptide, 24 h
# [8] = test system: 93RS2 Sertoli cells (tight junction formation); test: Transepithelial electrical resistance (TER) across 93RS2 monolayers; format: cell-based, rat; settings: ZIP9-siRNA; 10 nM testosterone or 10 µM peptides; up to 72 h
# Method: as §1
# A total of 3 × 10^4 cells were added to 0.4-µm pore ThinCertsTM (Greiner Bio-one GmbH, Frickenhausen, Germany) arranged within 1-cm wells of a 24-well plate. Cells were cultured for 24 h. Stimulation was then carried out with either testosterone or peptides at concentrations of 0.1, 1, 10, or 100 nM (testosterone) or 0.1, 1, 10, or 100 µM (peptides). Control incubations received ethanol vehicle only. TER was determined after 0, 24, 48, and 72 h, with the first measurement being made immediately after addition of testosterone or peptides. Stimulants remained in the cell medium for the entire duration of the experiment, and during this time the medium was not renewed. A Millicell ERS-2 epithelial Volt-Ohm Meter (Merck Millipore, Darmstadt, Germany) was used to measure TER. Each experiment was repeated three times. Similar experiments were carried out after silencing expression of ZIP9 by siRNA.
# Data were analyzed by GraphPad Prism4 software and by applying either the unpaired t-test with Welch’s corrections or one-way ANOVA with repeated measures and Dunnett´s comparison of all data to the control. Significance was accepted at p ≤ 0.05.
# [9] = test system: Erk1/2 phosphorylation (via ZIP9) in 93RS2 cells; test: Western blot of phospho-Erk1/2 in 93RS2 Sertoli cells; format: cell-based, rat
# Method: as §1
# A total of 1 × 10^5 93RS2 cells were grown in 10-cm culture dishes as described above. Cells were then incubated for 24 h with 1% FBS before treatment with various concentrations of the peptides dissolved in medium or testosterone dissolved in ethanol; equal amounts of ethanol were also added to the peptide-treated cells and to control incubations. […] After centrifugation of the lysates at 4 °C for 10 min at 13,000× g, the protein concentration in the supernatants was determined using a bicinchoninic acid (BCA) protein assay reagent kit (Pierce, Rockford, IL, USA) with inclusion of the lysis buffer in the standard curve.
# as §6, with “2021)). Loading differences in the various Western blots were corrected by taking into consideration the optical density of bands corresponding to unphosphorylated Erk1/2 bands or total actin detected in Western blots that were run in parallel.” for “2021)).”
# [10] = 30 min, T 0.1-100 nM, peptides 0.1-100 µM, Western blot
compound,measurement,setting,value
"5′GGAUUAAGUAAGAGCAGUAtt3′ and 5′UACUGCUCUUACUUAAUCCta3′ (chain 1 GGAUUAAGUAAGAGCAGUATT; chain 2 UACUGCUCUUACUUAAUCCTA; siRNA; chemistry not fully specified) [ZIP9-siRNA, ZIP9-specific siRNA to silence ZIP9 expression]",ZIP9-specific immunofluorescence remaining vs control conditions,ZIP9,7.93 ± 1.1%
same,presence of ZIP9-specific mRNA/cDNA vs nc-siRNA,ZIP9 mRNA,greatly reduced
BSA-FITC: BSA-FITC (lacking the testosterone moiety),labeling of 93RS2 cells by fluorescent conjugate,[1],Relatively low signals of green fluorescence
C[C@]12CC[C@H]3[C@@H](CCC4=CC(=O)CC[C@@]43C)[C@@H]1CC[C@@H]2O [testosterone],claudin-1 and claudin-5 expression,[2],stimulate claudin-1 and claudin-5 expression
same,"phosphorylation of CREB/ATF-1 by immunofluorescence, ZIP9 silenced",[3]; ZIP9-siRNA-treated cells,complete loss of the stimulatory effect
same,"phosphorylation of CREB/ATF-1 within nuclei by immunofluorescence, ZIP9 expressed",[3]; nc-siRNA-treated cells,stimulated phosphorylation of the transcription factors within the nuclei
same,effect on expression of total Erk1/2,[4],without affecting the expression of the enzyme protein
same,"phosphorylation of Erk1/2 by immunofluorescence, ZIP9 silenced",[5]; ZIP9-siRNA-treated cells,abolished the stimulation of Erk1/2 phosphorylation
same,"phosphorylation of Erk1/2 by immunofluorescence, ZIP9 expressed",[5]; nc-siRNA-treated cells,triggered the phosphorylation of Erk1/2
same,"stimulation of CREB/ATF-1 phosphorylation, in words",[6]; [10],stimulate the phosphorylation of the transcription factors CREB and ATF-1
same,EC50,"[6]; Rattus norvegicus, 0.5 h, read-out: EC50 for CREB and ATF-1 phosphorylation (approximate, Discussion)",~0.5 nM
same,concentration of maximum effect on CREB/ATF-1 phosphorylation,[6]; testosterone (Discussion),10 nM
same,"claudin-5 expression and localization, ZIP9 silenced",claudin-5 in 93RS2 cells; ZIP9-siRNA,Only basal levels of Claudin-5 are detected
same,"claudin-5 expression, ZIP9 expressed",claudin-5 in 93RS2 cells; nc-siRNA,stimulated the expression of claudin-5
same,"ZO-1 expression, ZIP9 silenced",[7]; ZIP9-siRNA,did not respond
same,"ZO-1 expression, ZIP9 expressed",[7]; nc-siRNA,stimulated the expression of zona occludens (ZO-1)
same,"claudin-1 distribution, ZIP9 silenced",claudin-1 in 93RS2 cells; ZIP9-siRNA,This re-distribution was not observed
same,"claudin-1 distribution, ZIP9 expressed",claudin-1 in 93RS2 cells; nc-siRNA,triggered re-distribution of claudin-1 from the cytosol to the membranes or to the nuclei
same,claudin-1 expression level,claudin-1 in 93RS2 cells; nc-siRNA,do not seem to influence the expression level of claudin-1
same,"TER increase, ZIP9 silenced",[8],failed to stimulate TER increase
same,"stimulation of Erk1/2 phosphorylation, in words",[9]; [10],stimulated in a concentration-dependent manner the phosphorylation of Erk1/2
same,EC50,"[9]; Rattus norvegicus, 0.5 h, read-out: EC50 for stimulation of Erk1/2 phosphorylation (approximate, Discussion)",~0.5 nM
Testosterone 3-(O-carboxymethyl)oxime:BSA-fluorescein isothiocyanate [T-BSA-FITC],labeling of 93RS2 cells by fluorescent conjugate,[1],uniform green labeling of the extracellular surface of the cells
same,"labeling of cell membranes by testosterone-BSA-FITC, ZIP9 silenced","[1]; ZIP9-siRNA-treated cells, 5 µM T-BSA-FITC",completely prevented
